Data: patent US20090318485A1, “NOVEL INHIBITORS OF RHO KINASE” (KALYPSYS, INC., priority 2006, published 2009)

Legend:
[1] = biological target: T1, recombinant N-terminal GST-tagged human Rho kinase 1 (ROCK1, amino acids 1-535) (Homo sapiens, UniProt Q13464); test: In vitro Rho kinase assay (luciferase-based ATP consumption), ROCK1; format: biochemical; conditions: 3 μM ATP, S6 peptide substrate, 30° C. for 2 hours; read-out: ROCK 1 IC50
T1 construct: human Rho kinase 1 (ROCK1, amino acids 1-535, Invitrogen Inc); purchased Invitrogen Inc. PV-3691
T1 sequence (Q13464 1-535): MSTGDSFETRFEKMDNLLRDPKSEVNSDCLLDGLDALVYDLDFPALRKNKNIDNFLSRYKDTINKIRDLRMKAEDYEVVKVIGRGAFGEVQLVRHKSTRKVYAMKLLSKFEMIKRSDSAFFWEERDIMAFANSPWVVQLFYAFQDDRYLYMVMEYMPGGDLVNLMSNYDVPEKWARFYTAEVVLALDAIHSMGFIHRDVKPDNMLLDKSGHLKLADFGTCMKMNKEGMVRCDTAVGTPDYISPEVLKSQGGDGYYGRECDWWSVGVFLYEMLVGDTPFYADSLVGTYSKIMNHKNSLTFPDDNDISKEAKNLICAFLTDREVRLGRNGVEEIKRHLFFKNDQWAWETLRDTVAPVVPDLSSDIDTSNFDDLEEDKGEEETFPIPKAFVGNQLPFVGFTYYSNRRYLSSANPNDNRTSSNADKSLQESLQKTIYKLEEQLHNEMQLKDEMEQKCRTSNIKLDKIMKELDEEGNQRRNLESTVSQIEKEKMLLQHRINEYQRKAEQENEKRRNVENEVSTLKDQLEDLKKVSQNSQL
Description: (§1) In Vitro Rho Kinase Assay
(§2) Rho kinase biochemical assays described below depend on firefly luciferase-based, indirect measurement of total ATP consumption by the kinase following incubation with substrate and ATP. […] The plate is centrifuged for 30 seconds at approximately 200×g. 240 nl of test compound in DMSO is dispensed to each well by passive pin transfer. The lag phase of this in vitro kinase reaction permits addition of compounds soon after the reaction initiates. The reaction is allowed to incubate at 30° C. for 2 hours. The assay plates are sealed and maintained in a humidified environment. […] After an additional 10 minute incubation at room temperature (about 22° C.), luminescence activity is measured on a Molecular Devices Analyst multi-mode plate reader or other suitable plate reader. Kinase inhibition results in less ATP consumption, and therefore increased luminescence signal. Negative control activity is measured with DMSO lacking any test compound. The positive control is 2-methyl-1-(4-methylisoquinolin-5-ylsulfonyl)perhydro-1,4-diazepine hydrochloride (aka H-1152P, HCl salt). Efficacy is measured as a percentage of positive control activity.

[2] = biological target: T2, recombinant N-terminal GST-tagged human Rho kinase 2 (ROCK2, amino acids 1-552) (Homo sapiens, UniProt O75116); test: In vitro Rho kinase assay (luciferase-based ATP consumption), ROCK2; format: biochemical; conditions: 3 μM ATP, S6 peptide substrate, 30° C. for 2 hours; read-out: ROCK 2 IC50
T2 construct: human Rho kinase 2 (ROCK2, amino acids 1-552, Invitrogen Inc); purchased Invitrogen Inc. PV3759
T2 sequence (O75116 1-552): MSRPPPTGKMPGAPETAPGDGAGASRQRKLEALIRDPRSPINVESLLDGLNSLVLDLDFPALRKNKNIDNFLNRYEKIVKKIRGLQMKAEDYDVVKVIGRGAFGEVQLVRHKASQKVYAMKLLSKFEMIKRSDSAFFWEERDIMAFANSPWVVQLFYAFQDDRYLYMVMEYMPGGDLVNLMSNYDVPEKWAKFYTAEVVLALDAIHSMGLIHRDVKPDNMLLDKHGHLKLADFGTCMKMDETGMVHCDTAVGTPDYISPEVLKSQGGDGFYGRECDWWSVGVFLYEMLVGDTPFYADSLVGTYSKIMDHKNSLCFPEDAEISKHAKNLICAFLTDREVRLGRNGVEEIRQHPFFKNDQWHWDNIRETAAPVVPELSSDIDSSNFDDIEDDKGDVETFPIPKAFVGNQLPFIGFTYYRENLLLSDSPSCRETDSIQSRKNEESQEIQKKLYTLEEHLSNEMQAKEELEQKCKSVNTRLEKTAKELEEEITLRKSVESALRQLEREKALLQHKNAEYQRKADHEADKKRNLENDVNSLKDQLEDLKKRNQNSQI
Description: as §1, §2

Compound | IC50 [1] | IC50 [2]
CCOC(=O)c1nnn(-c2nonc2N)c1-c1ccccc1Cl [Example 12] | > 5 µM | > 5 µM
Cc1cc(=O)oc2cc(OC(C)C(=O)Nc3nccs3)ccc12 (stereo not drawn) [Example 10] | > 5 µM | 
CN(C)CCN(Cc1ccccc1)Cc1cc(-c2ccnc3cc(Cl)ccc23)ccc1O [Example 4] | > 5 µM | ≤ 5 µM
C=CCN(CC=C)S(=O)(=O)c1ccc2nc(N)sc2c1 [Example 9] | ≤ 5 µM | ≤ 5 µM
CC(C)c1cc2cc(/C=C/C(=O)O)c(O)cc2o1 [Example 3] | ≤ 5 µM | ≤ 5 µM
CC1CCC(C(=O)NC(C(=O)Nc2ccncc2)C(C)C)CC1 (stereo not drawn) [Example 13] | ≤ 5 µM | ≤ 5 µM

Continued, values first:

IC50 [1] | IC50 [2] | Compound
≤ 5 µM | ≤ 5 µM | CSc1nc(-c2ccncc2)nc(N)c1C#N [Example 5]
≤ 5 µM | ≤ 5 µM | C=CCc1cccc2cc(C(N)=O)c(=N)oc12 [Example 1]
≤ 5 µM | ≤ 5 µM | Clc1ccc(Cn2cc(-c3ccncc3)cn2)c(Cl)c1 [Example 15]
≤ 5 µM | ≤ 5 µM | CC(OC(=O)c1ccc(O)cc1)C(=O)Nc1ccc(Cl)c(Cl)c1 (stereo not drawn) [Example 8]
≤ 5 µM | > 5 µM | CC(CCc1ccc(O)cc1)Nc1ccc2[nH]ncc2c1 (stereo not drawn) [Example 7]
≤ 5 µM | ≤ 5 µM | CC(C)(CO)CNc1nc(-c2ccncc2)cnc1N [Example 6]
≤ 5 µM | ≤ 5 µM | O=C1NC(=Cc2ccc(O)c(Br)c2)C(=O)N1Cc1ccccc1F [Example 11]
≤ 5 µM | ≤ 5 µM | Cc1cc(C)c2c(N)c(C(N)=O)sc2n1 [Example 2]
